Experimental data from patent US7846945B2, “Piperdine-based inhibitors of sodium glucose co-transporter 2 and methods of their use” (Lexicon Pharmaceuticals, Inc., priority 2007, dated 2010).

What follows are compounds tested against T1, Human sodium/glucose co-transporter type 2 (SGLT2) (Homo sapiens, UniProt P31639) (assay: In vitro human SGLT2 inhibition assay (14C-AMG uptake)). Conditions: HEK293 cells expressing human HA-SGLT2; potent = SGLT2 IC50 of less than about 500 nM; read-out: SGLT2 IC50 (potent SGLT2 inhibitor mark).
T1 construct: HA; expressed in transfected cells
T1 sequence (P31639 1-672): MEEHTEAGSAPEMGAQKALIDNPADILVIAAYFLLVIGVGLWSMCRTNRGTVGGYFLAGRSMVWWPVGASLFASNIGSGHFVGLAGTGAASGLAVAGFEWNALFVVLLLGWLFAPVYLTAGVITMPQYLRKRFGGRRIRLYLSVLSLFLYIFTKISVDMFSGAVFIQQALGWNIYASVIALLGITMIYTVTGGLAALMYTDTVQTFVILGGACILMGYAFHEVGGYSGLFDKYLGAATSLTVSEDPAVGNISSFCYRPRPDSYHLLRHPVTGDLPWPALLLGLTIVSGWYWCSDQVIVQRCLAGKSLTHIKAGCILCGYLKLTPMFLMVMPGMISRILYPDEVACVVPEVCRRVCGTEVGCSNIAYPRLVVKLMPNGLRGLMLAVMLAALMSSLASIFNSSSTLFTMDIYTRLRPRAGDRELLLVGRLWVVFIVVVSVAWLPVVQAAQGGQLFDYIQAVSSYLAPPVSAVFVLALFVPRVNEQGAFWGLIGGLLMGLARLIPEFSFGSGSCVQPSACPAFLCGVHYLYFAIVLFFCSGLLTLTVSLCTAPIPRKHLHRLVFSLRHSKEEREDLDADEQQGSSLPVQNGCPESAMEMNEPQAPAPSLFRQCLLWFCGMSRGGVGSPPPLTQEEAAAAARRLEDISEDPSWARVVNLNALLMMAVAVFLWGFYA
Format: cell-based
Procedure: HEK293 cells were transfected with the human HA-SGLT2-pIRESpuro2 vector and the bulk stable cell line was selected in presence of 0.5 μg/ml of puromycin. Human HA-SGLT2 cells were maintained in DMEM media containing 10% FBS, 1% GPS and 0.5 μg/ml of puromycin.
The HEK293 cells expressing the human HA-SGLT2 were seeded in 384 well plates (30,000 cells/well) in DMEM media containing 10% FBS, 1% GPS and 0.5 μg/ml of puromycin, then incubated overnight at 37 C, 5% CO2. Cells were then washed with uptake buffer (140 mM NaCl, 2 mM KCl, 1 mM CaCl2, 1 mM MgCl2, 10 mM HEPES, 5 mM Tris, 1 mg/ml bovine serum albumin (BSA), pH 7.3). Twenty microliters of uptake buffer with or without testing compounds were added to the cells. Then, 20 microliters of uptake buffer containing ^14C-AMG (100 nCi) were added to the cells. The cell plates were incubated at 37° C., 5% CO2 for 1-2 hours. After washing the cells with uptake buffer, scintillation fluid was added (40 microliters/well) and ^14C-AMG uptake was measured by counting radioactivity using a scintillation coulter (TopCoulter NXT; Packard Instruments).
The IC50 of a compound with regard to a given target is determined by fitting the relevant data, using the Levenburg Marquardt algorithm, to the equation: y=A+((B−A)/(1+((C/x)^D))) wherein A is the minimum y value; B is the maximum y value; C is the IC50; and D is the slope.
For `CCOc1ccc(Cc2cc([C@@H]3O[C@H](Oc4ccccc4)[C@@H](O)[C@H](O)[C@H]3O)ccc2Cl)cc1` [(2S,3R,4R,5S,6R)-2-[4-Chloro-3-(4-ethoxy-benzyl)-phenyl]-6-phenoxy-tetrahydro-pyran-3,4,5-triol], the IC50 was < 500 nM.
For `CCOc1ccc(Cc2cc([C@@H]3O[C@H](SCC(N)=O)[C@@H](O)[C@H](O)[C@H]3O)ccc2Cl)cc1` [2-{(2R,3S,4R,5R,6S)-6-[4-Chloro-3-(4-ethoxy-benzyl)-phenyl]-3,4,5-trihydroxy-tetrahydro-pyran-2-ylsulfanyl}-acetamide], the IC50 was < 500 nM.
`CCOc1ccc(Cc2cc([C@H]3[C@H](O)[C@@H](O)[C@H](O)CN3CC(N)=O)ccc2Cl)cc1` [2-{(2S,3S,4S,5R)-2-[4-Chloro-3-(4-ethoxy-benzyl)-phenyl]-3,4,5-trihydroxy-piperidin-1-yl}-acetamide] was tested, and the IC50 was < 500 nM.
With `CCOc1ccc(Cc2cc(C3NC(CO)[C@@H](O)[C@H](O)[C@H]3O)ccc2Cl)cc1` (stereo partly drawn) [(3S,4R,5R)-2-[4-Chloro-3-(4-ethoxy-benzyl)-phenyl]-6-hydroxymethyl-piperidine-3,4,5-triol] the IC50 was < 500 nM.
With `CCOc1ccc(Cc2cc([C@@H]3OC(OCc4ccccc4)[C@@H](O)[C@H](O)[C@H]3O)ccc2Cl)cc1` (stereo partly drawn) [(3S,4R,5R,6S)-2-Benzyloxy-6-[4-chloro-3-(4-ethoxy-benzyl)-phenyl]-tetrahydro-pyran-3,4,5-triol] the IC50 was < 500 nM.
In the case of `COC1O[C@@H](c2cccc(Cc3ccc(OCCO)cc3)c2)[C@H](O)[C@@H](O)[C@@H]1O` (stereo partly drawn) [(2S,3R,4R,5S)-2-{3-[4-(2-Hydroxy-ethoxy)-benzyl]-phenyl}-6-methoxy-tetrahydro-pyran-3,4,5-triol], the IC50 is reported as < 500 nM.
`CCOc1ccc(Cc2cc([C@@H]3OC(OCCN(C)C)[C@@H](O)[C@H](O)[C@H]3O)ccc2Cl)cc1` (stereo partly drawn) [(2S,3R,4R,5S)-2-[4-Chloro-3-(4-ethoxy-benzyl)-phenyl]-6-(2-dimethylamino-ethoxy)-tetrahydro-pyran-3,4,5-triol] was tested, and the IC50 was < 500 nM.
For `COC1O[C@@H](c2ccc(Cl)c(Cc3ccc(OC4CCOCC4)cc3)c2)[C@H](O)[C@@H](O)[C@@H]1O` (stereo partly drawn) [(2S,3R,4R,5S)-2-{4-Chloro-3-[4-(tetrahydro-pyran-4-yloxy)-benzyl]-phenyl}-6-methoxy-tetrahydro-pyran-3,4,5-triol], the IC50 was < 500 nM.
`CCOc1ccc(Cc2cc([C@H]3[C@H](O)[C@@H](O)[C@H](O)CN3CC(C)C)ccc2Cl)cc1` [(2S,3S,4S,5R)-2-[4-Chloro-3-(4-ethoxy-benzyl)-phenyl]-1-isobutyl-piperidine-3,4,5-triol] was tested, and the IC50 was < 500 nM.
`CCOc1ccc(Cc2cc([C@@H]3O[C@H](OCCO)[C@@H](O)[C@H](O)[C@H]3O)ccc2Cl)cc1` [(2S,3R,4R,5S,6S)-2-[4-Chloro-3-(4-ethoxy-benzyl)-phenyl]-6-(2-hydroxy-ethoxy)-tetrahydro-pyran-3,4,5-triol] was tested, and the IC50 was < 500 nM.
For `COc1cc(Oc2ccc(Cc3cc([C@@H]4OC(OC)[C@@H](O)[C@H](O)[C@H]4O)ccc3Cl)cc2)nc(OC)n1` (stereo partly drawn) [(2S,3R,4R,5S)-2-{4-Chloro-3-[4-(2,6-dimethoxy-pyrimidin-4-yloxy)-benzyl]-phenyl}-6-methoxy-tetrahydro-pyran-3,4,5-triol], the IC50 was < 500 nM.
`CCOc1ccc(Cc2cc([C@H]3[C@H](O)[C@@H](O)[C@H](O)CN3Cc3ccccc3)ccc2Cl)cc1` [(2S,3S,4S,5R)-1-Benzyl-2-[4-chloro-3-(4-ethoxy-benzyl)-phenyl]-piperidine-3,4,5-triol] was tested, and the IC50 was < 500 nM.
`CCOc1ccc(Cc2cc([C@@H]3OC(OCC(=O)OC)[C@@H](O)[C@H](O)[C@H]3O)ccc2Cl)cc1` (stereo partly drawn) [{(3S,4R,5R,6S)-6-[4-Chloro-3-(4-ethoxy-benzyl)-phenyl]-3,4,5-trihydroxy-tetrahydro-pyran-2-yloxy}-acetic acid methyl ester] was tested, and the IC50 was < 500 nM.
With `CCOc1ccc(Cc2cc([C@@H]3OC(OC)[C@@H](O)[C@H](O)[C@H]3O)ccc2C)cc1` (stereo partly drawn) [(2S,3R,4R,5S)-2-[3-(4-Ethoxy-benzyl)-4-methyl-phenyl]-6-methoxy-tetrahydro-pyran-3,4,5-triol] the IC50 was < 500 nM.
For `COC1O[C@@H](c2ccc(Cl)c(Cc3ccc(OCCOCc4ccccc4)cc3)c2)[C@H](O)[C@@H](O)[C@@H]1O` (stereo partly drawn) [(2S,3R,4R,5S)-2-{3-[4-(2-Benzyloxy-ethoxy)-benzyl]-4-chloro-phenyl}-6-methoxy-tetrahydro-pyran-3,4,5-triol], the IC50 was < 500 nM.
With `COCCOc1ccc(Cc2cc([C@@H]3OC(OC)[C@@H](O)[C@H](O)[C@H]3O)ccc2Cl)cc1` (stereo partly drawn) [(2S,3R,4R,5S)-2-{4-Chloro-3-[4-(2-methoxy-ethoxy)-benzyl]-phenyl}-6-methoxy-tetrahydro-pyran-3,4,5-triol] the IC50 was < 500 nM.
With `CCOc1ccc(Cc2cc([C@@H]3O[C@H](SCC)[C@@H](O)[C@H](O)[C@H]3O)ccc2Cl)cc1` [(2S,3R,4R,5S,6R)-2-[4-Chloro-3-(4-ethoxy-benzyl)-phenyl]-6-ethylsulfanyl-tetrahydro-pyran-3,4,5-triol] the IC50 was < 500 nM.
With `CCOc1ccc(Cc2cccc([C@@H]3OC(OC)[C@@H](O)[C@H](O)[C@H]3O)c2)cc1` (stereo partly drawn) [(2S,3R,4R,5S)-2-[3-(4-Ethoxy-benzyl)-phenyl]-6-methoxy-tetrahydro-pyran-3,4,5-triol] the IC50 was < 500 nM.
With `CCCSC1O[C@@H](c2ccc(Cl)c(Cc3ccc(OCC)cc3)c2)[C@H](O)[C@@H](O)[C@@H]1O` (stereo partly drawn) [(2S,3R,4R,5S)-2-[4-Chloro-3-(4-ethoxy-benzyl)-phenyl]-6-propylsulfanyl-tetrahydro-pyran-3,4,5-triol] the IC50 was < 500 nM.
`CCOc1ccc(Cc2cc([C@@H]3OC(OCCS)[C@@H](O)[C@H](O)[C@H]3O)ccc2Cl)cc1` (stereo partly drawn) [(2S,3R,4R,5S)-2-[4-Chloro-3-(4-ethoxy-benzyl)-phenyl]-6-(2-mercapto-ethoxy)-tetrahydro-pyran-3,4,5-triol] was tested, and the IC50 was < 500 nM.
For `CCOc1ccc(Cc2cc([C@@H]3O[C@H](SCCO)[C@@H](O)[C@H](O)[C@H]3O)ccc2Cl)cc1` [(2S,3R,4R,5S,6R)-2-[4-Chloro-3-(4-ethoxy-benzyl)-phenyl]-6-(2-hydroxy-ethylsulfanyl)-tetrahydro-pyran-3,4,5-triol], the IC50 was < 500 nM.
For `CCOc1ccc(Cc2cc([C@@H]3O[C@H](SCCC(C)C)[C@@H](O)[C@H](O)[C@H]3O)ccc2Cl)cc1` [(2S,3R,4R,5S,6R)-2-[4-Chloro-3-(4-ethoxy-benzyl)-phenyl]-6-(3-methyl-butylsulfanyl)-tetrahydro-pyran-3,4,5-triol], the IC50 was < 500 nM.
For `COC1O[C@@H](c2ccc(Cl)c(Cc3ccc(OC4CCN(C)CC4)cc3)c2)[C@H](O)[C@@H](O)[C@@H]1O` (stereo partly drawn) [(2S,3R,4R,5S)-2-{4-Chloro-3-[4-(1-methyl-piperidin-4-yloxy)-benzyl]-phenyl}-6-methoxy-tetrahydro-pyran-3,4,5-triol], the IC50 was < 500 nM.
In the case of `C=CCNC(=O)N1C[C@@H](O)[C@H](O)[C@@H](O)[C@@H]1c1ccc(Cl)c(Cc2ccc(OCC)cc2)c1` [(2S,3S,4S,5R)-2-[4-Chloro-3-(4-ethoxy-benzyl)-phenyl]-3,4,5-trihydroxy-piperidine-1-carboxylic acid allyl amide], the IC50 is reported as < 500 nM.
